Data reported in publication PMC6332334, “3-H-[1,2]Dithiole as a New Anti-Trypanosoma cruzi Chemotype: Biological and Mechanism of Action Studies” (Molecules, 2015).
Marks after values point to notes of the source that are not given here.

Key:
[1] = test system: T. cruzi cells (Y strain, DTU Tc II); assay: 1H-NMR study of the excreted metabolites; type: cell-based, Trypanosoma cruzi
Method: To gain insight into the changes promoted by the active 3-propylidene[1,2]dithioles 2 and 14 in some biochemical pathways, the metabolites excreted by the parasite using ^1H-NMR spectroscopy were analyzed. Changes in the excreted metabolites by T. cruzi Y strain (DTU Tc II, [24]), when the parasite cells were exposed to a bioactive compound, could be indicative of the modification of the biochemical pathway(s) by the agents. Spectra of the cell-free milieu of treated parasites were compared with those of the untreated T. cruzi-free milieu as the control. We focused mainly on the changes of excreted salts of the carboxylic acids, lactate (Lac), acetate (Ace), pyruvate (Pyr), and succinate (Succ) and the amino acids, alanine (Ala) and glycine (Gly), among the most relevant modified metabolites.
For the ^1H-NMR spectroscopic studies, T. cruzi cells (Y strain, DTU Tc II) treated for 2 days, with each studied compound at concentrations corresponding to 2 × IC50 values (5 mL) were centrifuged at 1500× g for 10 min at 4 °C. The pellet was discarded, and the parasite-free supernatant was stored at −20 °C until use. Before measuring, DMF (0.1 mL, 10 mM) as the internal standard and D2O (0.1 mL) were added to the supernatant (0.3 mL). ^1H-NMR experiments were recorded at 20 °C on a Bruker Advance DPX-400 spectrometer (Bruker), operating at 400.132 MHz, with a 5 mm broadband inverse geometry probe. The acquisition parameters included: 90° pulse (zgpr, advance-version v 1.7.10.2, 1D sequence with f1 presaturation), 128 scans, and spectral width of 14.983 ppm. The acquisition time was 1.3664 s. Signal intensities were calculated by performing appropriate baseline corrections and then integrating the area under each of the resonances using MestRe-C NMR software. Spectra were analyzed using the Topspin 1.3 software package. The spectra were registered with water suppression in 5 mm NMR (Aldrich, St. Louis, MO, USA) sample tubes. The chemical displacements used to identify the respective metabolites were previously confirmed by adding each analyzed metabolite to the studied supernatant, as well as by the study of a control solution with 4 μg/mL of each metabolite in buffer (phosphate, pH = 7.4). Each run was done at least in triplicate and the Student t test was used to analyze the significance of the changes. […]

cruzipain = target: T1, cruzipain (Trypanosoma cruzi, UniProt P25779); assay: Inhibition of T. cruzi cruzipain (Z-Phe-Arg-AMC fluorogenic substrate); type: biochemical; details: percentage of enzymatic inhibition at 100 μM; read-out: Cruzipain % Inhib100
T1 construct: endogenous in cells; host or cells: T. cruzi epimastigotes, Tulahuen 2 strain
T1 sequence (P25779 123-467): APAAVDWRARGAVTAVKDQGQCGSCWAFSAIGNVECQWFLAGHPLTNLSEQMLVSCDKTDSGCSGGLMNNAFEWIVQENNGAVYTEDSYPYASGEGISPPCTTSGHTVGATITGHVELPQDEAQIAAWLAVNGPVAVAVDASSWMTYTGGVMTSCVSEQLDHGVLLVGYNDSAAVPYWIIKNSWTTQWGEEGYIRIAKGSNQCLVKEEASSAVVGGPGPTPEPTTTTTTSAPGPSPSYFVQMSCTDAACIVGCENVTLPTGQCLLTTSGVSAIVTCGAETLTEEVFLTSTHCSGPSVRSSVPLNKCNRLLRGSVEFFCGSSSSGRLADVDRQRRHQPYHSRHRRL
Method: Initially, we tested the dithioles as inhibitors of the protease cruzipain from T. cruzi at a concentration of 100 μM.
Cruzipain was purified to homogeneity from epimastigotes of the Tulahuen 2 strain by ConA-Sepharose affinity chromatography, as previously described. Cruzipain (2.5 μM ε = 58,285 M^−1·cm^−1) was incubated in 50 mM acetate buffer pH 5.5 with 50 mM DTT and 100 μM inhibitor was added, shaking the solution for 15 min at 27 °C. The derivatives were added diluted in DMSO, and the controls contained the same solvent concentration. The concentration of DMSO never exceeded 1% in the reaction medium. E-64 was used as a positive control of inhibition. Then, the fluorogenic substrate Z-Phe-Arg-AMC (100 μM) was added and the fluorescence was measured during 10 min at intervals of 3 s (excitation at 350 nm and emission at 460 nm) using a Varioskan Flash Spectrophotometer. From the slope of the negative control, we calculated the total (100%) enzyme activity, while the slopes obtained in the presence of the compounds yielded the percentage of remaining enzyme activity. The percentage of enzyme inhibition was determined as […]. The experiments were done in duplicate.

[2] = IC50 × 2, 2 days, DMF internal standard

## CC(=O)COc1ccc(C2=C/C(=C(\SCC(C)=O)C(C)=O)SS2)cc1 [Derivative 2]
[1]; [2]
  Concentration of excreted Ace: 23.28 ± 0.86
  Concentration of excreted Ala: 17.76 ± 0.61
  Concentration of excreted Gly: 2.11 ± 0.11 ^c
  Concentration of excreted Lac: 8.73 ± 0.37
  Concentration of excreted Pyr: 8.00 ± 0.35
  Concentration of excreted Succ: 5.83 ± 0.24
[1]; IC50 × 2, p < 0.05 Student's t-test
  Change of excreted metabolites compared to the control: significantly decreased the levels of excreted Gly and Pyr
cruzipain
  inhibition at 100 µM: 91.3 ± 2.8%
